Experimental data published in US6566337B1, “Compounds with growth hormone releasing properties” (Novo Nordisk A/S, priority 1998, dated 2003).
Square brackets hold non-standard residues; d marks the D form. Peptide text beside a SMILES is read from it. d2Nal = N[C@H](Cc1ccc2ccccc2c1)C(=O)O

Legend:
[1] = Pharmacokinetics in fasted Beagle dogs; assay type: in vivo; conditions: dog, plasma; for half-life: in 5% glucose solution, non-compartmental, read-out: Plasma half-life T½ (converted); for bioavailability: intravenous and oral administration in 5% glucose solution, read-out: Oral bioavailability Fpo
Protocol: The pharmakokinetic data were obtained by following procedure:
The pharmacokinetics of the test compounds were investigated in fasted Beagle dogs.
Intravenous and oral administration of the test compound, in 5% glucose solution, was separated by a one weeks washout.
Blood samples were collected immediately before drug administration (time zero) and than 0.08, 0.25, 0.50, 0.75, 1.0, 1.5, 2.0, 3.0, 4.0, 5.0, and 6.0 hours after administration.
The plasma samples were stored frozen (<−18° C.) pending analysis.
An HPLC method with solid phase extraction and UV detection was used for the quantification of the compound in plasma.
The pharmacokinetic parameters for compounds were calculated by non-compartmental methods using the PC based pharmacokinetic software WinNonlin, version 1.1 (Scientific Consulting Inc., Apex, N.C., USA).

carboxypeptidase Y and B = test: Metabolic stability in carboxypeptidase mix (ESMS, SIM signal); conditions: carboxypeptidase Y and B in 50 mM ammoniumacetate pH 4.5, 37° C., 24 h, decrease in SIM signal
Protocol: (§1) Compounds is dissolved at a concentration of 1 mg/ml in water. 25 ml of this solution is added to 175 ml of the respective enzyme-solution (resulting in an enzyme:substrate ratio (w/w) of approximately 1:5). The solution is left at 37° C. overnight. 10 ml of the various degradation solutions is analyzed against a corresponding zero-sample using flow injection electrospray mass spectrometry (ESMS) with selected ion monitoring of the molecular ion. If the signal has decreased more than 20% compared to the zero-sample, the remainder of the solution is analyzed by HPLC and mass spectrometry in order to identify the extent and site(s) of degradation precisely.
Carboxypeptidase mix: carboxypeptidase Y and B in 50 mM ammoniumacetate pH 4.5 (all concentrations 0.025 mg/ml).
(§2) Mass spectrometric analysis was performed using two different mass spectrometers. A Sciex API III triple quadrupole LC-MS instrument (Sciex instruments, Thornhill, Ontario) equipped with an electrospray ion-source and a Bio-Ion 20 time-of-flight Plasma Desorption instrument (Bio-Ion Nordic AB, Uppsala, Sweden).
(§3) Quantification of the compounds (before and after degradation) was done on the API III instrument using single ion monitoring of the molecular ion in question with flow injection of the analyte. […]

[2] = system: trypsin, chymotrypsin and elastase; test: Metabolic stability in pancreatic enzyme mix (ESMS, SIM signal); conditions: chymotrypsin and elastase in 100 mM ammoniumbicarbonate pH 8.0, 37° C., 24 h, decrease in SIM signal
Protocol: as §1
Pancreatic enzyme mix: trypsin, chymotrypsin and elastase in 100 mM ammoniumbicarbonate pH 8.0 (all concentrations 0.025 mg/ml).
as §2, §3

Structure (SMILES)	half-life [1] [h]	bioavailability [1] [%]	Carboxy-peptidase mix (stability) (carboxypeptidase Y and B)	Pan. enzyme mix (stability) [2]
CN(C(=O)/C=C/CC(C)(C)N)[C@H](Cc1ccc2ccccc2c1)C(=O)N(C)[C@H](Cc1ccccc1)C(=O)NCCc1ccncc1 [Example 408 from WO 9723508]	3.89	26	–	–
C[C@H](NC(=O)[C@@H](Cc1ccc2ccccc2c1)NC(=O)[C@@H](C)N)C(=O)N[C@@H](Cc1c[nH]c2ccccc12)C(=O)N[C@H](Cc1ccccc1)C(=O)N[C@@H](CCCCN)C(N)=O [GHRP-2] (H-[dA][d2Nal]AW[dF]K-NH2)	–	–	− (Unstable (more than 20% decrease in SIM signal after 24 h in degradation solution))	− (Unstable (more than 20% decrease in SIM signal after 24 h in degradation solution))
C[C@H](NC(=O)[C@@H](Cc1c[nH]c2ccccc12)NC(=O)[C@@H](N)Cc1c[nH]cn1)C(=O)N[C@@H](Cc1c[nH]c2ccccc12)C(=O)N[C@H](Cc1ccccc1)C(=O)N[C@@H](CCCCN)C(N)=O [GHRP-6] (H-H[dW]AW[dF]K-NH2)	–	–	− (Unstable (more than 20% decrease in SIM signal after 24 h in degradation solution))	− (Unstable (more than 20% decrease in SIM signal after 24 h in degradation solution))
CN(CCc1ccccn1)C(=O)[C@@H](Cc1ccccc1)N(C)C(=O)[C@@H](Cc1ccc2ccccc2c1)N(C)C(=O)/C=C/CC(C)(C)N [Example 1, (2E)-5-Amino-5-methylhex-2-enoic acid N-methyl-N-[(1R)-1-(N-methyl-N-{(1R)-1-[N-methyl-N-(2-(2-pyridinyl)ethyl)carbamoyl]-2-phenylethyl}carbamoyl)-2-(2-naphthyl)ethyl]amide]	2	34	–	–
